Data set [1] relates to T1, Flag-tagged, full-length USP30 (wild type) in HEK293 cells.
T1 construct: C-terminally Flag-tagged human USP30 (1–517) was used for transient transfection; expressed in transfected cells; host or cells: HEK293, transient transfection of a pOPINE vector
As to the kind of experiment: Cellular ubiquitin probe competition, overexpressed Flag-tagged full-length USP30 wild type. Type of data set: cell-based, human. To be noted: 2 µM compound, 2 h; HA-Ub-PA probe in lysate. Here is the method:
HEK293 cells (8 × 10^5 cells per well) were seeded in six-well plates and cultivated for 24 h. PEI transfecting reagent (Polysciences) was pre-incubated for 10 min with the vectors in 200 μl Opti-MEM medium (2 µg DNA per well). Cells were transfected and incubated for 48 h. Following the treatment with either compounds or DMSO in fresh medium for an additional 2 h, cells were processed as described below. Cells were seeded at 8 × 10^5 cells per well and grown for 48 h. […] The medium was aspirated, and cells were washed once with ice-cold PBS. Cells were collected by scraping in lysis buffer (150 mM NaCl, 250 mM sucrose, 50 mM Tris, pH 8.0, 5 mM TCEP) supplemented with EDTA-free complete protease inhibitor cocktail and benzonase. Suspended cells were homogenized by 12 bursts of a microtip probe sonicator (Branson Sonifier 450) at 10% amplitude with pulses of 1 s on ice. Remaining cell debris was separated by centrifugation (20,817g, 5 min, 4 °C). […] After incubation for 10 min at room temperature, reactions were quenched by the addition of 4× reducing LDS sample buffer. Samples were resolved by SDS–PAGE and further analyzed via western blot. Using a Trans-Blot Turbo system (Bio-Rad, 1.0 A, 25 V, 30 min), proteins were blotted onto a nitrocellulose membrane. […]

For data set [2], the target named is T2, USP30^c1 (Homo sapiens, UniProt Q70CQ3, DEL179-208/DEL211-214/DEL358-428/F348D/I353E/M350S/N216S/S215G).
T2 sequence (Q70CQ3 with tags, fused parts or gaps DEL179-208/DEL211-214/S215G/N216S/F348D/M350S/I353E/DEL358-428): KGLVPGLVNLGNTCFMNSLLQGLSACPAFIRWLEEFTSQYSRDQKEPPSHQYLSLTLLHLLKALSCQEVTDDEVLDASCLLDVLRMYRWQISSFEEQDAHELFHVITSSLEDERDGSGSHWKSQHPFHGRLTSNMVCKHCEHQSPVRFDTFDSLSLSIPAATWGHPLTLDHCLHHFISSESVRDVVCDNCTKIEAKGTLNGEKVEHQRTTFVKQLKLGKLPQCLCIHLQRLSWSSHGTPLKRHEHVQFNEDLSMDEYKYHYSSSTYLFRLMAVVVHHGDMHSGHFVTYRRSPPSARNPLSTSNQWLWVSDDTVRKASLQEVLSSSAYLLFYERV
As to the kind of experiment: Ub–RhoG cleavage enzyme inhibition assay, USP30 construct 1. Type of data set: biochemical. To be noted: for IC50: Ub–RhoG cleavage, 1.5 h pre-incubation, mean ± s.e.m. from curve fitting; for USP30c1 activity: mean n=3. The protocol:
Enzyme kinetics were performed in black, low-volume, non-binding-surface 384-well plates. […] Next, 10 µl of 2× enzyme solution was added in triplicate to the plate. The reaction was started by adding 10 µl of 2× substrate solution. […] Inhibitor solution (4×) was added to 4× enzyme solution to create a 2× enzyme–inhibitor mixture. Next, 10 µl of this 2× enzyme–inhibitor mixture was then added to the plate in triplicate, and the plate was incubated at room temperature for 90 min. The reaction was started by adding 10 µl of 2× Ub–RhoG substrate. […] Data were analyzed with GraphPad Prism.

Data set [3] has as its target T2, USP30^c1. As to the kind of experiment: Thermal shift assay, USP30 c1. Type of data set: binding. As to conditions: for Tm in presence of compound, USP30^c1: 20 μM inhibitor. The protocol:
(§1) The thermal stability of USP30 constructs and effects of either inhibitor or Ub-PA binding were determined by thermal shift assays. Inhibitor, Ub-PA and SYPRO orange dye (Sigma, 5,000× stock in DMSO) solutions were prepared in 1× PBS, 4 mM DTT. Inhibitor/Ub-PA was prediluted to 100 µM, and SYPRO orange dye was prediluted to 50× (from the commercial stock). Mixtures of protein, inhibitor/Ub-PA and SYPRO were prepared with inhibitor/Ub-PA at a final concentration of 20 μM, SYPRO at a final concentration of 4× and protein at a final concentration of 2 μM for c1, 4 μM for ch1, ch4 and c2 and 3 μM for ch2 and ch3. Samples were added in triplicate to a white 96-well PCR plate (Bio-Rad). Fluorescence intensity was monitored (excitation, 450–490 nm; emission, 560–580 nm) at a gradient of 20–90 °C (increment of 0.3 °C, hold for 5 s before read) on a real-time PCR system (Bio-Rad).

The next data set addresses USP30^ch2 (Homo sapiens, UniProt Q70CQ3). As to the kind of experiment: Thermal shift assay, USP30 ch2. Type of data set: binding. To be noted: 20 μM inhibitor. Here is the method: as §1
The nature of data set [4]: Solubility in aqueous buffers (observation during crystallization). Type of data set: physicochemical.
A further data set addresses USP30^ch3 I154A (Homo sapiens, UniProt Q70CQ3, I154A, form not given). Briefly: Thermal shift assay, USP30 ch3 I154A. Type of data set: binding. To be noted: 20 μM inhibitor. The protocol:
as §1

Where [5] appears, read: pH 8, read-out: USP30c1 activity.

Where “and” joins values, the source holds several entries; their conditions need not be identical. Equal values may be shown once. Read-outs that look alike come from different tables or passages of the source.

As a reminder, the IC50 is the concentration needed to halve the response being measured. A low value points to inhibition by little substance. The term ΔTm denotes the shift of the melting midpoint relative to a reference.

Chain of USP30^ch2 (Q70CQ3 64-502): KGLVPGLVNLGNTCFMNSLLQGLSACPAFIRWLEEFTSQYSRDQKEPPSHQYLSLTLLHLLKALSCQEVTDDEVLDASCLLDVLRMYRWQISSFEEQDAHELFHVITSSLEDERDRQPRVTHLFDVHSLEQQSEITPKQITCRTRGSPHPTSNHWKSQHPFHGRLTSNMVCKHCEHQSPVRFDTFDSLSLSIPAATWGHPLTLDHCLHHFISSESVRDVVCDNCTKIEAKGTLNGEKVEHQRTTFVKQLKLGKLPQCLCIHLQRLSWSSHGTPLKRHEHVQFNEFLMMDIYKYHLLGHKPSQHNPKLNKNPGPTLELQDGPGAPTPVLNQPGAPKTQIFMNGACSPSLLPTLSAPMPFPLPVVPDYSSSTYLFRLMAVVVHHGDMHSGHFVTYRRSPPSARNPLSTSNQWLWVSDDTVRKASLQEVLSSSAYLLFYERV
Chain of USP30^ch2 (P54578 248-318 partner): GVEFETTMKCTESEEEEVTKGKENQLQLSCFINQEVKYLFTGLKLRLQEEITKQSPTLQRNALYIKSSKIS
Chain of USP30^ch3 I154A (Q70CQ3 64-502 I154A, form open): as the sequence (Q70CQ3 64-502) above, with I91A counted along it
Chain of USP30^ch3 I154A (P54578 248-318 partner, form open): as the sequence (P54578 248-318 partner) above
Chain of USP30^ch3 I154A (Q9P2H5 821-846 partner, form open): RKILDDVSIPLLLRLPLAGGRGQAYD

As to `CC(C)(C)NS(=O)(=O)c1ccc(NC(=O)[C@H](Cc2ccccc2)NC(=O)c2ccc(F)cc2)cc1` [compound 39], the “probe labeling of wild-type Flag-USP30” value in data set [1] is listed as “abolished probe labeling”. Moreover, the IC50 against USP30^c1 [2] is 0.8 nM and 0.834 nM. Further, the USP30c1 activity on USP30^c1 [2] (inhibitor 0.0015625 nM) is recorded as 0.9588; on USP30^c1 [2] (inhibitor 0.00625 nM), 0.9404; on USP30^c1 [2] (inhibitor 0.025 nM) it was 0.8662; at USP30^c1 [2] (inhibitor 0.1 nM), 0.7469; on USP30^c1 [2] (inhibitor 0.39 nM), 0.5918; on USP30^c1 [2] (inhibitor 1.56 nM), 0.4353. Moreover, the USP30c1 activity came to 0.2635 at USP30^c1 [2] (inhibitor 6.25 nM); 0.1267 at USP30^c1 [2] (inhibitor 25 nM); 0.06264 at USP30^c1 [2] (inhibitor 100 nM); 0.02701 on USP30^c1 [2] (inhibitor 400 nM); 0.01055 at USP30^c1 [2] (inhibitor 1600 nM). The “Tm in presence of compound, USP30^c1” value on USP30^c1 [3] is 58.9 °C. The thermal shift (ΔTm) at 20 µM on USP30^c1 [3] (read-out: ΔTm, USP30^c1) was determined as 7.8 °C. For the same compound, at USP30^ch2, the “Tm in presence of compound, USP30^ch2” value worked out at 59.1 °C. Moreover, in data set [4], the “solubility in aqueous buffers” value was “poor solubility”. Further, the “Tm in presence of compound, USP30^ch3 I154A” value on USP30^ch3 I154A came to 59.0 °C.
`CC(C)(CO)NS(=O)(=O)c1ccc(NC(=O)[C@H](Cc2ccccc2)NC(=O)c2ccc(F)cc2)cc1` [NK036]: the “probe labeling of wild-type Flag-USP30” value in data set [1] is “abolished probe labeling”. Moreover, at USP30^c1 [2], the concentration for half-maximal inhibition (IC50) is 7.4 nM and 7.38 nM. On USP30^c1 [2] (setting [5]), the activity at 1.562 pM was 100%, the activity at 6.25 pM turned out to be 101%, the activity at 25 pM is 98.2% and the activity at 0.0001 µM came to 95.3%. Also, on USP30^c1 [2] (setting [5]), the activity at 0.00039 µM is 89%, the activity at 0.00156 µM was 79.6%, the activity at 0.00625 µM came out at 53.6% and the activity at 0.025 µM worked out at 27%. In addition, on USP30^c1 [2] (setting [5]), the activity at 0.1 µM turned out to be 10.3%, the activity at 0.4 µM is 3.49% and the activity at 1.6 µM amounted to 1.25%. Further, the “Tm in presence of compound, USP30^c1” value on USP30^c1 [3] amounted to 58.3 °C. The ΔTm at 20 µM at USP30^c1 [3] (read-out: ΔTm, USP30^c1) was 7.2 °C. For the same compound, the ΔTm at 20 µM on USP30^c1 [3] (read-out: ΔTm, column headed USP30c1 in sheet Fig. 4f) was 6.1 °C. Besides, on USP30^ch2, the “Tm in presence of compound, USP30^ch2” value came out at 58.5 °C. The “solubility in aqueous buffers” value in data set [4] is given as “improved”. In addition, at USP30^ch3 I154A, the “Tm in presence of compound, USP30^ch3 I154A” value came out at 59.0 °C.

The record behind these values is publication PMC12440824, “Chimeric deubiquitinase engineering reveals structural basis for specific inhibition of the mitophagy regulator USP30” (Nature Structural & Molecular Biology, 2025).
